Each structure is given as a SMILES string.

For orientation: IC50 means the concentration needed to halve the response being measured.

In the first test the test system is HCT 116 cells. Briefly: CellTiter-Glo assay in HCT 116 cells (antiproliferative activity). The conditions noted are these: Homo sapiens, HCT-116, 120 h, CellTiter-Glo cell viability, HCT 116 human colon carcinoma, 5 days (120 h) incubation. It counts as cell-based. The source says: Antiproliferative Activity:
CellTiter-Glo™ Assay in HCT 116 Cells:
The CellTiter-Glo™ Luminescent Cell Viability Assay (Promega) is a homogeneous method of determining the number of viable cells in culture based on quantitation of the ATP present, which signals the presence of metabolically active cells.
HCT 116 cells (human colon carcinoma, ATCC-No. CCl-247) were cultivated in RPMI 1640 medium with GlutaMAX• I (Invitrogen, Cat-No. 61870-010), 5% Fetal Calf Serum (FCS, Sigma Cat-No. F4135 (FBS)); 100 Units/ml penicillin/100 μg/ml streptomycin (=Pen/Strep from Invitrogen Cat. No. 15140). For the assay the cells were seeded in 384 well plates, 1000 cells per well, in the same medium. The next day the test compounds were added in various concentrations ranging from 30 μM to 0.0015 μM (10 concentrations, 1:3 diluted). After 5 days the CellTiter-Glo™ assay was done according to the instructions of the manufacturer (CellTiter-Glo™ Luminescent Cell Viability Assay, from Promega). In brief: the cell-plate was equilibrated to room temperature for approximately 30 minutes and than the CellTiter-Glo™ reagent was added. The contents were carefully mixed for 15 minutes to induce cell lysis. After 45 minutes the luminescent signal was measured in Victor 2, (scanning multiwell spectrophotometer, Wallac).
1st. Day: • Medium: RPMI 1640 with GlutaMAX™ I (Invitrogen, Cat-Nr. 61870), 5% FCS (Sigma Cat.-No. F4135), Pen/Strep (Invitrogen, Cat No. 15140). • HCT116 (ATCC-No. CC1-247): 1000 cells in 60 μl per well of 384 well plate (Greiner 781098, μClear-plate white) • After seeding incubate plates 24 h at 37° C., 5% CO2
2nd. Day: Induction (Treatment with Compounds, 10 Concentrations):
In order to achieve a final concentration of 30 μM as highest concentration 3.5 μl of 10 mM compound stock solution were added directly to 163 μl media. Then step e) of the dilution procedure described below, was followed.
In order to achieve the second highest to the lowest concentrations, a serial dilution with dilution steps of 1:3 was followed according to the procedure (a-e) as described here below: • a) for the second highest concentration add 10 μl of 10 mM stock solution of compound to 20 μl dimethylsulfoxide (DMSO) • b) dilute 8×1:3 (always 10 μl to 20 μl DMSO) in this DMSO dilution row (results in 9 wells with concentrations from 3333.3 μM to 0.51 μM) • c) dilute each concentration 1: 47.6 (3.5 μl compound dilution to 163 μl media) • d) add 10 μl of every concentration to 60 μl media in the cell plate resulting in final concentration of DMSO: 0.3% in every well and resulting in 10 final concentration of compounds ranging from 30 μM to 0.0015 μM. • Each compound is tested in triplicate. • Incubate 120 h (5 days) at 37° C., 5% CO2 […]
Add 30 μl CellTiter-Glo™ Reagent (prepared from CellTiter-Glo™ Buffer and CellTiter-Glo™ Substrate (lyophilized) purchased from Promega) per well, shake 15 minutes at room temperature incubate further 45 minutes at room temperature without shaking
Victor 2 scanning multiwell spectrophotometer (Wallac), Luminescence mode (0.5 sec/read, 477 nm) Determine IC50 using a non-linear curve fit (XLfit software (ID Business Solution Ltd., Guilford, Surrey, UK))
With `CC(CNc1cc[nH]c(=O)c1C(=O)Nc1cccc(CN2CCCCC2)c1)c1ccccc1` (stereo not shown) [Example 6u, 2-Oxo-4-(2-phenyl-propylamino)-1,2-dihydro-pyridine-3-carboxylic acid (3-piperidin-1-ylmethyl-phenyl)-amide], the IC50 was 0.5 to 15 µM.

With `O=C(Nc1cccc(N2CCOCC2)c1)c1c(NC[C@@H](O)c2cccc(Cl)c2)cc[nH]c1=O` [Example 4m, 4-[(S)-2-(3-Chloro-phenyl)-2-hydroxy-ethylamino]-2-oxo-1,2-dihydro-pyridine-3-carboxylic acid (3-morpholin-4-yl-phenyl)-amide], the IC50 lay within 0.5 to 15 µM.

Consider `CC(CNc1cc[nH]c(=O)c1C(=O)Nc1cccc(CN2CCCC2)c1)c1ccccc1` (stereo not shown) [Example 6v, 2-Oxo-4-(2-phenyl-propylamino)-1,2-dihydro-pyridine-3-carboxylic acid (3-pyrrolidin-1-ylmethyl-phenyl)-amide], for which the IC50 lay within 0.5 to 15 µM.

Turning to `CN1CCN(c2ccc(NC(=O)c3c(NCCc4cccc(Cl)c4)cc[nH]c3=O)cc2)CC1` [Example 4b, 4-[2-(3-Chloro-phenyl)-ethylamino]-2-oxo-1,2-dihydro-pyridine-3-carboxylic acid [4-(4-methyl-piperazin-1-yl)-phenyl]-amide], the IC50 lay in the range of 0.5 to 15 µM.

As to `CS(=O)(=O)c1cccc(NC(=O)c2c(NC[C@@H](O)c3cccc(Cl)c3)cc[nH]c2=O)c1` [Example 4p, 4-[(S)-2-(3-Chloro-phenyl)-2-hydroxy-ethylamino]-2-oxo-1,2-dihydro-pyridine-3-carboxylic acid (3-methanesulfonyl-phenyl)-amide], the IC50 lay within 0.5 to 15 µM.

Consider `O=C(Nc1cccc(N2CCCC2)c1)c1c(NCCc2cccc(Cl)c2)cc[nH]c1=O` [Example 2e, 4-[2-(3-Chloro-phenyl)-ethylamino]-2-oxo-1,2-dihydro-pyridine-3-carboxylic acid (3-pyrrolidin-1-yl-phenyl)-amide], for which the IC50 lay in the range of 0.5 to 15 µM.

In the case of `CSc1cccc(NC(=O)c2c(NC[C@@H](O)c3cccc(Cl)c3)cc[nH]c2=O)c1` [Example 4q, 4-[(S)-2-(3-Chloro-phenyl)-2-hydroxy-ethylamino]-2-oxo-1,2-dihydro-pyridine-3-carboxylic acid (3-methylsulfanyl-phenyl)-amide], the IC50 fell in the range of 0.5 to 15 µM.

In turn, `O=C(Nc1ccc(N2CCOCC2)cc1)c1c(NCc2ccccn2)cc[nH]c1=O` [Example 6r, 2-Oxo-4-[(pyridin-2-ylmethyl)-amino]-1,2-dihydro-pyridine-3-carboxylic acid (4-morpholin-4-yl-phenyl)-amide] registered an IC50 of 0.5 to 15 µM.

For `CN(C)c1cccc(NC(=O)c2c(NC[C@@H](O)c3cccc(Cl)c3)cc[nH]c2=O)c1` [Example 2w, 4-[(S)-2-(3-Chloro-phenyl)-2-hydroxy-ethylamino]-2-oxo-1,2-dihydro-pyridine-3-carboxylic acid (3-dimethylamino-phenyl)-amide], the IC50 was 0.5 to 15 µM.

Consider `CN1CCN(c2ccc(NC(=O)c3c(NC[C@@H](O)c4ccccc4)cc[nH]c3=O)cc2F)CC1` [Example 4c, 4-[(S)-2-Hydroxy-2-phenyl-ethylamino]-2-oxo-1,2-dihydro-pyridine-3-carboxylic acid [3-fluoro-4-(4-methyl-piperazin-1-yl)-phenyl]-amide], for which the IC50 fell in the range of 0.5 to 15 µM.

Consider `CN1CCN(c2ccc(NC(=O)c3c(NCCc4cccc(Cl)c4)cc[nH]c3=O)cc2F)CC1` [Example 4a, 4-[2-(3-Chloro-phenyl)-ethylamino]-2-oxo-1,2-dihydro-pyridine-3-carboxylic acid [3-fluoro-4-(4-methyl-piperazin-1-yl)-phenyl]-amide], for which the IC50 lay in the range of 0.5 to 15 µM.

`COc1ccc(NC(=O)c2c(NCCc3ccccc3)cc[nH]c2=O)cc1N1CCN(C)CC1` [Example 6i, 2-Oxo-4-phenethylamino-1,2-dihydro-pyridine-3-carboxylic acid [4-methoxy-3-(4-methyl-piperazin-1-yl)-phenyl]-amide] returned an IC50 of 0.5 to 15 µM.

With `O=C(Nc1ccc(N2CCOCC2)c(F)c1)c1c(NCc2ccccn2)cc[nH]c1=O` [Example 1, 2-Oxo-4-[(pyridin-2-ylmethyl)-amino]-1,2-dihydro-pyridine-3-carboxylic acid(3-fluoro-4-morpholin-4-yl-phenyl)-amide], the IC50 was determined as 7.46 µM.

The target in another test is T1, FAK Kinase Domain (KD) (Homo sapiens, UniProt Q05397).
T1 construct: FAK Kinase Domain (KD) from baculo Sf9 was used; made in house; host or cells: baculovirus / Sf9 insect cells
T1 sequence (Q05397 422-680 limits assumed, species assumed): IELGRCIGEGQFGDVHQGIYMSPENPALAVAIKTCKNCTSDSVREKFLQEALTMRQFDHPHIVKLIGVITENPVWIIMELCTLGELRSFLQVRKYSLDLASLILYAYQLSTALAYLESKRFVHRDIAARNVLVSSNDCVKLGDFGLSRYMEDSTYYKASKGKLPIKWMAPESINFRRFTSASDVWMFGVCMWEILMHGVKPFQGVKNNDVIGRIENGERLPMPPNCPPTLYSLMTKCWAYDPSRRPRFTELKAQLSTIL
Briefly: IC50 determination for inhibitors of FAK (ELISA-type assay). The conditions noted are these: FAK kinase domain from baculo Sf9, biotinylated FAK-397 peptide, 10 μM ATP, 30 min, read-out: IC50 FAK inhibition. It counts as biochemical. A general note: ELISA stands for enzyme-linked immunosorbent assay.
Turning to `COc1ccc(NC(=O)c2c(NCCc3cccnc3)cc[nH]c2=O)cc1N1CCN(C)CC1` [Example 6aa, 2-Oxo-4-(2-pyridin-3-yl-ethylamino)-1,2-dihydro-pyridine-3-carboxylic acid [4-methoxy-3-(4-methyl-piperazin-1-yl)-phenyl]-amide], the IC50 was found to be 0.216 µM.

For `O=C(Nc1cccc(N2CCCC2)c1)c1c(NC[C@@H](O)c2ccccc2)cc[nH]c1=O` [Example 2d, 4-((S)-2-Hydroxy-2-phenyl-ethylamino)-2-oxo-1,2-dihydro-pyridine-3-carboxylic acid (3-pyrrolidin-1-yl-phenyl)-amide], the IC50 was 0.093 µM.

`O=C(Nc1ccc(N2CCOCC2)c(F)c1)c1c(NCc2ccccn2)cc[nH]c1=O` [Example 1, 2-Oxo-4-[(pyridin-2-ylmethyl)-amino]-1,2-dihydro-pyridine-3-carboxylic acid(3-fluoro-4-morpholin-4-yl-phenyl)-amide]: the half-inhibitory concentration (IC50) amounted to 0.143 µM.

(Values after US20110218199A1, “PYRIDONEAMIDE DERIVATIVES, THEIR MANUFACTURE AND USE AS PHARMACEUTICAL AGENTS” (priority 2007, published 2011).)
